Patent publication US9084792B2 (Zhejiang Charioteer Pharmaceutical Co., Ltd., priority 2009, dated 2015)

Assays:
[1] = stability test of crystalline form on storage; assay type: physicochemical; settings: room temperature, relative humidity of less than 50%
From the text: (2) It has good stability of crystalline form. […] It can be stored in the dark, cool and dry place for a long time.

[2] = thermal decomposition point; assay type: physicochemical
Method: (1) It has the property required for large-scale preparation of drugs: for example, it has thermal decomposition point of over 250° C., and good fluidity and bulk density, which are in favor of drug preparation and industrial production on a large scale.

storage time [1]: more than one year | content during the storage time ([1]; more than one year): the content does not reduce | crystalline form during the storage time ([1]; more than one year): the crystalline form remains the same | thermal decomposition point [2]: over 250 °C
SMILES: Nc1nc2c(ncn2COCCO)c(=O)[nH]1.Nc1nc2c(ncn2COCCO)c(=O)[nH]1.Nc1nc2c(ncn2COCCO)c(=O)[nH]1.O.O [acyclovir 2/3 hydrate]
